The text below walks through data of patent US5521184A, “Pyrimidine derivatives and processes for the preparation thereof” (Ciba-Geigy Corporation, priority 1992, dated 1996).

The target in test [1] is EGF-receptor-specific protein tyrosine kinase (EGF-R-PTK) (Homo sapiens, UniProt P00533). In words: inhibition of the EGF-receptor-specific protein tyrosine kinase (EGF-R-PTK). The format is biochemical. The source says: J. Biochem. 207, 265-275 (1992).
Test [2] has as its system human T24 bladder carcinoma. In words: tumour-inhibiting activity in nude mice with transplanted human T24 bladder carcinoma. The settings on record: perorally or intraperitoneally once daily for 15 days. The format is in vivo, female Balb/c nude mice. How it is done:
The tumour-inhibiting activity is determined using female Balb/c nude mice in which human T24 bladder carcinoma has been transplanted. On day 0, a c. 25 mg piece of solid tumour is transplanted subcutaneously under peroral "forene" narcosis on the left flank and the small incision wound is closed with a suture clip. On day 6 after the tumour transplantation, the mice are randomised in groups of 6 animals and treatment is commenced. The treatment is carded out for 15 days by administering a compound of formula I, e.g. N-[3-(1,1,2,2-Tetrafluoroethoxy)phenyl]-4-(4-pyridyl)-2-pyrimidine-amine, in dimethyl sulfoxide/Tween 80/sodium chloride solution in the different doses perorally or intraperitoneally once daily. The tumours are measured twice weekly with a sliding caliper and the tumour volume determined.

The test system of test [3] is p34^cdc2 /cyclin B^cdc13 kinase. Kind of test: p34cdc2/cyclin Bcdc13 kinase assay with histone H1 as substrate. The format is biochemical, starfish. How it is done: Starfish oocytes are induced to enter M phase with 10 μM 1-methyladenine, frozen in liquid nitrogen and stored at -80° C. When required the oocytes are homogenized and centrifuged as described by D. Arion et al., Cell 55, 371-378 (1988) and V. Rialet und L. Meijer, Anticancer Res. 11, 1581-1590 (1991). For purification of p34^cdc2 /cyclin B^cdc13 kinase, the supernatant of oocytes is added to p9^CKShs -sepharose beads prepared from recombinant human p9^CKShsas described by L. Azzi et al., Eur. J. Biochem. 203, 353-360 (1992). After 30 minutes at 4° C. under constant rotation, the beads are extensively washed and active p34^cdc2 /cyclin B^cdc13 kinase is eluted with free p9^CKShs (3 mg/ml). The eluted kinase is assayed using histone H1 as a substrate as described by L. Meijer et al., EMBO J. 8, 2275-2282 (1989) und EMBO J. 10, 1545-1554 (1991). The reaction mixture contains 10 μl p34^cdc2 /cyclin B^cdc13 kinase, 5 μl histone H1, type III-S (5 mg/ml) and 10 μl buffer C. The reaction is started by addition of 5 μl [γ-^32 P]ATP (75 μM, 8800 cpm/pmole) and incubated for 10 minutes at 30° C. The assay is terminated by transferring 25 μl on pieces of Whatman P81 phosphocellulose paper. After 20 seconds the papers are washed 6 times with each 10 ml of 1% phosphoric acid for 5 minutes, dried and counted in a scintillation counter.

SMILES strings stand for the structures.

Sequence of EGF-receptor-specific protein tyrosine kinase (EGF-R-PTK) (P00533 669-1210 limits assumed): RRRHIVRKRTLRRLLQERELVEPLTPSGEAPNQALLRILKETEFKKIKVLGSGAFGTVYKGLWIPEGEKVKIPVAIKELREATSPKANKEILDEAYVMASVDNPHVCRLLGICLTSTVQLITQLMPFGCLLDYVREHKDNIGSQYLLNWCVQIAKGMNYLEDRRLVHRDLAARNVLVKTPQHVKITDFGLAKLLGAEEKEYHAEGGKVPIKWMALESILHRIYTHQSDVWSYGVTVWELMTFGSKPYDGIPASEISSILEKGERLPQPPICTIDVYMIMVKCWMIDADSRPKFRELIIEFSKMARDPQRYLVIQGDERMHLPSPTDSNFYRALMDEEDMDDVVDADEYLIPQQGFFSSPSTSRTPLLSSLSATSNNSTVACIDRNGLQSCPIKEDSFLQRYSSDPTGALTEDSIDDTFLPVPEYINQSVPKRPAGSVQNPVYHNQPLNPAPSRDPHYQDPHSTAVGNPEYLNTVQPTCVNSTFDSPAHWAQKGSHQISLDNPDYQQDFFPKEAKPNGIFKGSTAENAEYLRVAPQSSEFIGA

On to `FC(F)C(F)(F)Oc1cccc(Nc2nccc(-c3c[nH]c4ccccc34)n2)c1` [Example 33, N-[3-(1,1,2,2-tetrafluoroethoxy)phenyl]-4-(3-indolyl)-2-pyrimidine-amine], for which the “inhibition of the tyrosine kinase activity of the receptor for EGF” value in test [1] is “inhibit the tyrosine kinase activity”.

With `FC(F)C(F)(F)Oc1cccc(Nc2nccc(-c3ccncc3)n2)c1` [Example 32, N-[3-(1,1,2,2-tetrafluoroethoxy)phenyl]-4-(4-pyridyl)-2-pyrimidine-amine], in test [2], the “average tumour volume compared with the untreated controls” value is on record as “marked reduction in the average tumour volume”. The “inhibition of p34cdc2/cyclin Bcdc13 kinase” value in test [3] was “inhibit”. In test [3] (histone H1 substrate), this molecule showed an IC50 of 0.08 µM.

Usually IC50 stands for the concentration needed to halve the response being measured. A lower IC50 goes with higher potency.
